From patent US11324237B2, “Tasteful natural sweetener and flavor” (EPC Natural Products Co., Ltd., priority 2018, dated 2022)
“Also recorded” adds a separate entry of the source.

What was measured:
[1] = relative to sugar; cited from earlier work
[2] = Sensory evaluation of combinations of EPCalin, GSGs and SGs and NHDC in water (Example 234); format: in vivo, human; settings: 4.5 ppm Thaumatin and/or 50 ppm GSGs and SGs
Protocol: 4.5 ppm Thaumatin (equivalent to 10 ppm EPCalin) were dissolved in water. Increasing amounts of NHDC (1-5 ppm) were added to the solution and the sensory properties were evaluated.
50 ppm (GSGs and SGs) were dissolved in water. Increasing amounts of NHDC (1-5 ppm) were added to the solution and the sensory properties were evaluated.
50 ppm (GSGs and SGs) and 4.5 ppm Thaumatin (equivalent to 10 ppm EPCalin) were dissolved in water. Increasing amounts of NHDC (1-5 ppm) were added to the solution and the sensory properties were evaluated.
Sweetness Intensity was Rated on 5-Point Scale

[3] = Stevia-derived MRPs with NHDC and thaumatin, alone and in Redbull sugar free (Example 240); format: in vivo, human; settings: added before heating to stevia derived MRP; 150 μl in 100 ml Redbull sugar free
Protocol: 150 μl of the each sample was added to 100 ml Redbull sugar free and mixed. The taste profiles of the samples were compared. As a control, a RedBull sugar free sample without the addition of SteviAroma was used.
Before tasting the tasters discussed the upcoming series of samples and tasted samples with predetermined attributes with varying intensities to find a commonality in description. Four trained tasters blind taste tested independently all samples of a series. They were allowed to re-taste and made notes for the sensory attributes perceived including the relative intensity.
In the last step the attributes noted were discussed openly to find an acceptable description. In case that more than 1 taster disagreed with the description, the tasting was repeated.

[4] = Assay to test Reducing Power (iron-III reduction test for anti-oxidant potential); settings: combinations of amino acids and Reb-A, 10 mM, pH 7.8, 100° C., diluted 1:10 (FIG. 49)
Protocol: 0.2 M Sodium phosphate buffer, pH=6.6; 500 mg Potassium ferric(III)cyanide/50 mL water, 10% Trichloroacetic acid; 20 mg Iron-III-Chloride/20 mL water; Calibration samples were prepared with Ascorbic acid in a concentration of 0-100 μg/mL 0.2 M Sodium phosphate buffer, pH=6.6 (freshly prepared); as negative control sample water was used.
Samples in aqueous solution were used as such or diluted in 0.2 M Sodium phosphate buffer, pH=6.6.
A 1 mL sample (or calibration standard) was mixed with 1 mL 0.2 M Sodium phosphate buffer, pH=6.6 and 1 mL Potassium ferricyanide solution. The sample was incubated and protected from light at 50° C. for 20 min.
To the solution was added 1 mL Trichloroacetic acid with thorough mixing.
A 1 mL of the mixture was diluted with 1 mL H2O and 0.2 mL Iron-Ill-chloride and reacted for 10 minutes; The absorbance was then determined at 700 nm against H2O.
10 mM of amino acid and/or 10 mM sugar were dissolved in 10 ml 0.1 mM KH2PO4-buffer, pH=7.8. […]
1 ml sample (or calibration standard) solution) was mixed with 0.2 M Sodium phosphate buffer (pH=6.6) and 1 ml Potassium ferric(III)cyanide solution in water (1% w/v) and incubated at 50° C. for 20 minutes. […] The sample was incubated for 10 minutes and absorbance read at 700 nm against a water control. […]
Quantification was performed by linear regression of calibration test results for ascorbic acid. […]

[5] = Assay to test DPPH radical-scavenging activity; settings: combinations of amino acids and Reb-A, 10 mM, pH 7.8, 100° C., diluted 1:10 (FIG. 50)
Protocol: 1 mg 1,1-Diphenyl-2-picrylhydrazyl radical (DPPH)/ml ethanol, dilution to assay concentration were prepared in ethanol (40 μg/mL); Calibration samples were prepared with Ascorbic acid in a concentration of 0-10 μg/mL; as a negative control sample, water was used.
Samples in aqueous solution were used as such or diluted with water.
A 0.1 ml sample (or calibration standard) was mixed with 3.9 ml solution of DPPH° (100 μMolar) and reacted while protected from light at room temperature for 30 min. Absorbance was determined at 517 nm against ethanol.
10 mM of amino acid and/or 10 mM sugar were dissolved in 10 ml 0.1 mM KH2PO4-buffer, pH=7.8.
The samples were kept at 100° C. in sealed glass vials (Pyrex 15 ml with screw caps) for 0 (before reaction), 2.5 or 5.0 hours. Thereafter the samples were transferred to an ice water bath and cooled down to room temperature. These samples were diluted 1:10 and used for the test assay for anti-oxidant potential. […]
0.2 ml sample (or calibration standard) solution was mixed with 0.2 ml solution of DPPH® (0.1 mM) and 3.6 ml methanol. […] After 3 minutes the absorbance at 517 nm was obtained against ethanol. Quantification was performed by linear regression of calibration test results for ascorbic acid. […]

C[C@H](CC[C@@H](O[C@@H]1O[C@H](CO)[C@@H](O)[C@H](O)[C@H]1O[C@@H]1O[C@H](CO)[C@@H](O)[C@H](O)[C@H]1O)C(C)(C)O)[C@H]1CC[C@@]2(C)[C@H]3CC=C4[C@@H](CC[C@H](O[C@@H]5O[C@H](CO[C@@H]6O[C@H](CO)[C@@H](O)[C@H](O)[C@H]6O)[C@@H](O)[C@H](O)[C@H]5O)C4(C)C)[C@]3(C)[C@H](O)C[C@]12C [mogroside IV]
natural sweetness [1]: 126 times of that of sugar

C[C@H](CC[C@@H](O[C@@H]1O[C@H](CO[C@@H]2O[C@H](CO)[C@@H](O)[C@H](O)[C@H]2O)[C@@H](O)[C@H](O)[C@H]1O[C@@H]1O[C@H](CO)[C@@H](O)[C@H](O)[C@H]1O)C(C)(C)O)[C@H]1CC[C@@]2(C)[C@@H]3CC=C4[C@@H](CC[C@H](O[C@@H]5O[C@H](CO[C@@H]6O[C@H](CO)[C@@H](O)[C@H](O)[C@H]6O)[C@@H](O)[C@H](O)[C@H]5O)C4(C)C)[C@]3(C)[C@H](O)C[C@]12C [mogroside V]
natural sweetness [1]: 256-344 times of that of sugar

COc1ccc(CCC(=O)c2c(O)cc(O[C@@H]3O[C@H](CO)[C@@H](O)[C@H](O)[C@H]3O[C@@H]3O[C@@H](C)[C@H](O)[C@@H](O)[C@H]3O)cc2O)cc1O [NHDC, Neohesperidin dihydrochalcone]
sensory properties of combinations with NHDC [2]: long lasting lingering; also recorded: boosts the lingering
taste profile in sugarfree beverage [3]: improved the mouth-feel and harmony of taste impression yielding a substantially improved taste profile

OC[C@@H](O)[C@@H](O)[C@H](O)[C@H](O)CO [D-mannitol]
natural sweetness [1]: 0.55-0.65 times of that of sugar

C=C1C[C@@]23CC[C@H]4[C@@](C)(CCC[C@@]4(C)C(=O)O[C@@H]4O[C@H](CO)[C@@H](O)[C@H](O)[C@H]4O)[C@@H]2CC[C@]1(O[C@@H]1O[C@H](CO)[C@@H](O)[C@H](O[C@@H]2O[C@H](CO)[C@@H](O)[C@H](O)[C@H]2O)[C@H]1O[C@@H]1O[C@H](CO)[C@@H](O)[C@H](O)[C@H]1O)C3 [Reb-A, Rebaudioside A]
active iron-III reduction (anti-oxidant properties) [4]: substantial anti-oxidant properties
radical scavenging properties (anti-oxidant properties) [5]: substantial anti-oxidant properties
